Read-outs that look alike come from different tables or passages of the source.
Tests used:
[1] = test system: Nrf2; assay: 10-nitro-9(E)-octadec-9-enoic acid in nephrogenic diabetes insipidus; conditions: in vivo
Description: The pharmacologic activation of Nrf2 with CDDO-Me provided motivation to evaluate the viability of 10-nitro-9(E)-octadec-9-enoic acid as an activator and potential API for treating or preventing NDI.

[2] = test system: Nrf2 gene target NQO1; assay: NQO1 expression (immunoblotting) in primary human renal cortical cells; assay type: cell-based
Description: Cell culture: Primary human distal tubule cells from human adult kidneys were isolated and cultured as previously described (Emlet et al., Am. J. Physiol.-Ren. Physiol. 312, (2017)). Confluent monolayers of cells were incubated with vehicle control, LiCl or CDDO-Im for 18 hr in serum-free hormonally defined media followed by preparation of lysates for immunoblotting.
(§1) Immunoblotting: Flash-frozen kidneys were homogenized in ice-cold Radio Immuno Precipitation Assay (RIPA) buffer containing protease and phosphatase inhibitor cocktails. Cells were treated as indicated. At time of collection, cells were washed 2× with cold PBS and lysates were prepared in 4° C. lysis buffer containing protease inhibitors. Protein was quantified by bicinchoninic acid (BCA) assay (Pierce) and sample containing 15-25 μg total cellular protein was loaded on 4-12% reducing Bis-Tris gel. Resolved proteins were transferred to 0.45 μm nitrocellulose membrane, blocked with 5% non-fat dry milk or 5% bovine serum albumin in TRIS® buffered saline (TBS)-0.1% Tween 20 for 1 hr. Membranes were incubated with primary antibody (1:1000 dilution) for 1 hr at room temperature or overnight at 4° C. Appropriate secondary antibody was applied at dilution of 1:5000 for 1 hr, membrane washed thrice in TBS-0.1% Tween-20 and membrane visualized with Clarity ECL chemiluminescence kit and ChemiDoc imager (Bio-Rad, Hercules, Calif.).
To establish a murine model of NDI, mice were administered control chow diet or 0.17% LiCl diet for 0-7 days (FIG. 1A) during which body weight, food intake (Suppl. FIG. 1) and water intake (FIG. 1B) were monitored. […]
To further test the distribution of Nrf2 and sensitivity to activation in a translational model, NQO1 expression was determined in a cell culture model systems of primary human renal cortical cells representing proximal tubule (PT) and distal tubule (DT) cell populations (Emlet et al., Am. J. Physiol. - Ren. Physiol. 312, (2017)) in the presence or absence of the Nrf2 activator CDDO-Imidazolide (CDDO-Im) (FIG. 5C-F). […]

[3] = test system: Nrf2; assay: CDDO-Me in the Li-NDI mouse model; assay type: in vivo, mice; conditions: 5 mg/kg I.P., q.d.
Description: FIGS. 9A-9J. Pharmacologic activation of Nrf2 using CDDO-Me protects against polydipsia in Li-NDI via an AQP2-independent mechanism. (A) Schematic of model of Li-NDI. All mice received normal chow for 0-3d and were randomized to vehicle or CDDO-Me (5 mg/kg I.P., q.d.). At day 3, mice were randomized to either normal chow or 0.17% LiC1 diet. (B) Animal weights as a function of time, normalized to starting weight. (C) 24 hr food intake normalized to body weight. (D) Changes in water intake as a % of baseline expressed as mean±SE (n=6-8 per group). *(p<0.05) denotes statistical significance compared to LiC1-Vehicle by two-way ANOVA with Dunnet correction for multiple comparisons. (E) Immunoblotting of whole-kidney lysates for glycosylated ( ? , 45 kDa) and non-glycosylated ( ? , 29 kDa) AQP2 and NQO1; (F-H) Densitometry showing individual values, mean±SE with statistical analysis by one-way ANOVA with Tukey correction for multiple comparisons. (I) Plasma Li concentration. […]
Water and Urine: Mice and food were weighed daily. Water was supplied in 50 mL conical with sipper tube as described (bio-protocol.org/e1822), and daily water intake was determined by weight. Spot urine was collected after spontaneous voiding on plastic wrap and urine osmolality measured in technical duplicate with Wescor 5500® Vapor Pressure Osmometer using lOuL urine and the average value reported each mouse. […]

[4] = Nrf2-/- mice
[5] = Dietary Li administration in Keap1f/f mice (constitutive Nrf2 activation); assay type: in vivo
Description: Water and Urine: Mice and food were weighed daily. Water was supplied in 50 mL conical with sipper tube as described (bio-protocol.org/e1822), and daily water intake was determined by weight. Spot urine was collected after spontaneous voiding on plastic wrap and urine osmolality measured in technical duplicate with Wescor 5500® Vapor Pressure Osmometer using lOuL urine and the average value reported each mouse.
as §1
Consequently, Li was administered to mice with constitutive pharmacomimetic Nrf2 activation (Keap1^f/f) to test whether Nrf2 and Li induced NDI via synergistic or additive mechanisms (FIG. 3A). To our surprise, instead of exacerbating the renal toxicity of Li, activation of Nrf2 signaling conferred significant protective effects.
The duration of Li therapy in humans is on the order of months to decades. An experiment was done to evaluate if Nrf2 hyperactivation conferred long-term protection from the development of Li-NDI. 6-8 week old WT and Keap1^flox/flox mice were randomized to control or 0.17% LiCl diet for 8 months.

Compound: CCCCCCCC/C(=C\CCCCCCCC(=O)O)[N+](=O)[O-] [10-nitro-9(E)-octadec-9-enoic acid]
- symptoms of nephrogenic diabetes insipidus [1]: reduced symptoms of nephrogenic diabetes insipidus

Compound: CC1(C)CC[C@]2(C(=O)n3ccnc3)CC[C@]3(C)[C@H](C(=O)C=C4[C@@]5(C)C=C(C#N)C(=O)C(C)(C)[C@@H]5CC[C@]43C)[C@@H]2C1 [CDDO-Im, CDDO-Imidazolide]
- NQO1 expression ([2]; CD-10/CD-13 positive HAK cells (proximal tubule), exposure to CDDO-Im): did not further increase
- elevation in NQO1 ([2]; MUC1 positive cells (distal tubule), exposure to CDDO-Im): 3 fold

Compound: COC(=O)[C@]12CCC(C)(C)C[C@H]1[C@H]1C(=O)C=C3[C@@]4(C)C=C(C#N)C(=O)C(C)(C)[C@@H]4CC[C@@]3(C)[C@]1(C)CC2 [CDDO-Me, Bardoxolone methyl]
- food consumption ([3]; with LiCl diet): without impacting
- increase of renal NQO1 expression ([3]; whole-kidney lysates): 2- to 3 fold

Compound: [Cl-].[Li+] [LiCl]
- renal protein expression of Nrf2 gene target NQO1 (0.17% LiCl diet, 7 days): without impacting
- Water intake (0.17% LiCl diet, after 4 days): significantly increased
- renal expression of AQP2 (0.17% LiCl diet, by 7 days): significantly downregulated
- urine osmolality (hyposthenuria) (0.17% LiCl diet, day 7, spot urine): significant hyposthenuria
- Expression of NQO1 in kidney (Example 4, Li treatment): not affected
- glycosylated and non-glycosylated AQP2 isoforms in kidney (Example 4, both WT and Keap1f/f groups): significantly reduced
- volume status when water intake clamped to baseline intake (LiCl diet, baseline-clamped water): significant volume depletion with hypernatremia and polycythemia
- renal expression of CA-II (WT animals): reduced
- renal COX-1 expression (WT mice): down-regulate
- renal COX-2 expression (WT mice): down-regulate
- spot urine osmolality (WT-Li cohort, day 13): 359+/−192 mOsm/kg
- reduction in body mass (WT-Li mice, Example 4): ~5%
- plasma Li+ (both WT and Keap1f/f groups on LiCl diet): equivalently elevated
- total expression of NCC (tNCC) (kidney lysates, WT-Li cohort): unchanged
- Activating phosphorylation of NCC at threonine 53 (pNCC, T53) (kidney lysates, both genotypes): reduced
- body weight ([4]; Li diet 6 days): slightly reduced
- Food intake ([4]; first 3 days of LiCl diet): modestly suppressed
- urine osmolality ([4]; spot urine, day 11): 176+/−43 mOsm/kg
- NQO1 expression ([2]; Li 10 mM and 50 mM, Mucin 1-enriched distal tubule cells and CD10/CD13 proximal tubule cells): No increase
- water intake (polydipsia) ([5]; Keap1f/f mice receiving Li): normodipsic
- body mass change vs control diet ([5]; Keap1f/f mice receiving LiCl): no change
- urine osmolality ([5]; Keap1f/f-Li cohort, day 13): 758+/−703 mOsm/kg
- average daily water intake compared to WT-Ctrl ([5]; Keap1flox/flox-Li mice, 0.17% LiCl diet): no significant increase
- total expression of NCC (tNCC) ([5]; kidney lysates, Keap1f/f-Li cohort): significantly reduced
